Test [1] has as its target T1, wild-type Androgen Receptor (AR-wt) (Homo sapiens, UniProt P10275).
T1 construct: expressed in transfected cells; host or cells: LNCaP
T1 sequence (P10275 1-920): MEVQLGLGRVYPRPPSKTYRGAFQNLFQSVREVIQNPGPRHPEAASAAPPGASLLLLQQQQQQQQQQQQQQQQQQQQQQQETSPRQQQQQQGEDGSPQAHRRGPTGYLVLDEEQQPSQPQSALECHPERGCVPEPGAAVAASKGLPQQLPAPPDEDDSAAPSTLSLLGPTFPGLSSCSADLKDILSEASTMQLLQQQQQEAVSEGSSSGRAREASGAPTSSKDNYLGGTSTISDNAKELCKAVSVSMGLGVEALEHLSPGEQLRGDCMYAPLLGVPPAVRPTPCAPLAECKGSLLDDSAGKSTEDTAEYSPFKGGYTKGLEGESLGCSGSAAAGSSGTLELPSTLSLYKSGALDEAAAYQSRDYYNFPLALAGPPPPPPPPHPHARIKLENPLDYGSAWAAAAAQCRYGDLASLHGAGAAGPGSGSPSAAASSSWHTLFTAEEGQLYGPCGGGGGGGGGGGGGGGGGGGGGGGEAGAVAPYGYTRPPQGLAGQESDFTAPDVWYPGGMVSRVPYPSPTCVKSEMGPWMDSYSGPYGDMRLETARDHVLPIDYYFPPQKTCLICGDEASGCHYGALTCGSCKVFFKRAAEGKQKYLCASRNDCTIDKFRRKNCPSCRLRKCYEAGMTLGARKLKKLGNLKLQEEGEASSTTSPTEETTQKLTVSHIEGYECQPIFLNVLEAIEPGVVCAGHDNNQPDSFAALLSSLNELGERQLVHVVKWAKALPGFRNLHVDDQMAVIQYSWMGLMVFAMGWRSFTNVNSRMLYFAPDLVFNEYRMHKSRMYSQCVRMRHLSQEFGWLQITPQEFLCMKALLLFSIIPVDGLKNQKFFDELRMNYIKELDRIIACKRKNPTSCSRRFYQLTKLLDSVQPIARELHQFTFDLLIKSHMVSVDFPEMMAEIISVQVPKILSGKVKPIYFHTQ
Put plainly: AR reporter assay, LNCaP-AR-wt ANT (antagonist mode). The conditions noted are these: for Emax: read-out: LNCaP-AR-wt ANT MAX % Inh; for IC50: antagonist mode, 400 pM R-1881 challenge, luciferase reporter, -Log10(IC50 in Molar), read-out: LNCaP-AR-wt ANT pIC50 (converted). It is filed as cell-based. An excerpt: (§1) LNCaP AR (cs) and LNCaP F876L luciferase cell lines were generated by transduction of each cell line (description of cell line generation Joseph J D, Lu N, Qian J, Sensintaffar J, Shao G, Brigham D, Moon M, Maneval E C, Chen I, Darimont B, Hager J H. A clinically relevant androgen receptor mutation confers resistance to second-generation antiandrogens enzalutamide and ARN-509. Cancer Discov 2013; 3:1020-1029) with an Androgen Response Element Firefly Luciferase lentiviral construct at an MOI (multiplicity of infection) of 50 following the manufacturer's instructions (Qiagen). A stable pooled-population cell line was generated using puromycin (Life Technologies) selection at 1:10,000 v/v. The protocol below was used for both cell lines and for testing of the compounds of Formula (I) of the present invention.
(§2) LNCaP cells were grown to about 80% confluence, media removed and cells rinsed in Hank's balanced salt solution prior to separation from the plate with 0.05% Trypsin EDTA. Cells were lifted and trypsin negated in complete CSS (charcoal stripped serum) culture media. CSS was maintained on cells for 24 h prior to assay, at which time 5,000 cells/[…] were seeded in Greiner 384 well White/White Tissue Culture Treated Plates and incubated for a further 1-2 hours at 37° C., 5% CO2, prior to addition of 10 μL of 4× Test Compounds (compounds described herein) or Assay Controls (all diluted in complete media containing 10% css). A further 10 μL of 4× R-1881 Agonist Challenge (antagonist assay) or Buffer (agonist assay) was then added (all diluted in complete media containing 10% css). Agonist challenge was at 400 pM for WT assay and 600 pM for F876L assay. Plates containing cells and compounds herein were incubated for a further 20-24 hours at 37° C., 5% CO2 before addition of 40 μL/well of Steady-Glo Luciferase Assay System Reagent (Promega#E2520). After 1 h, plates were read for luminescence on a BMG Pherastar.
Agonist challenge: R-1881 (Metribolone)—Agonist
Antagonist control (low control): 5-(5-(4-((1-Methylpiperidin-4-yl)oxy)phenyl)-8-oxo-6-thioxo-5,7-diazaspiro[3.4]octan-7-yl)-3-(trifluoromethyl)picolinonitrile (WO 2011/103202, EXAMPLE 19, Compound 129, CAS #1332390-06-3).
(1−(Sample RLU−Ave Low Control RLU[10 μM Antagonist Control])/(Ave High Control RLU [400 pM R-1881]−Ave Low Control RLU[10 μM Antagonist Control]))*100.
(§3) EC/IC50 calculations were achieved utilizing calculated RLU data and data fitting macros. Data were fit using least-squares methods to the following formula: […]
(§4) As used herein: • pIC50 is defined as −Log10(IC50 expressed in [Molar]). • pEC50 is defined as −Log10(EC50 expressed in [Molar]). • MAX % Inh is defined as the maximum % inhibition of R1881 control response observed for a compound over the tested concentration range. • MAX % Stim is defined as the maximum % stimulation (agonist response) observed for a compound over the tested concentration range. • LNCaP-AR-wt ANT refers to the reporter assay using LNCaP cells stably transfected with the Androgen Response Element Firefly Luciferase lentiviral construct and wild-type Androgen Receptor (AR-wt) in Antagonist mode. • LNCaP-AR-wt AG refers to the reporter assay using LNCaP cells stably transfected with the Androgen Response Element Firefly Luciferase lentiviral construct and wild-type Androgen Receptor (AR-wt) in Agonist mode. • LNCaP-AR-F876L ANT refers to the reporter assay using LNCaP cells stably transfected with the Androgen Response Element Firefly Luciferase lentiviral construct and F876L mutant Androgen Receptor (AR-F876L) in Antagonist mode. • LNCaP-AR-F876L AG refers to the reporter assay using LNCaP cells stably transfected with the Androgen Response Element Firefly Luciferase lentiviral construct and F876L mutant Androgen Receptor (AR-F876L) in Agonist mode.
A general note: In a reporter assay the amount or activity of a reporter protein is the signal.

The target in test [2] is T1, wild-type Androgen Receptor (AR-wt). Put plainly: AR reporter assay, LNCaP-AR-wt AG (agonist mode). The test is classed as cell-based. Conditions: for Emax: read-out: LNCaP-AR-wt AG MAX % Stim.
Excerpt: as §1, §2
((Sample RLU−Ave Low Control RLU[DMSO/Buffer])/(Ave High Control RLU [1 μM R-1881]—Ave Low Control RLU[DMSO/Buffer]))*100.
as §3, §4

pEC50, pIC50: −log10 of the molar value. Where a name gives a salt, the structure may show the parent alone. Read-outs that look alike come from different tables or passages of the source.

Consider `N#Cc1ccc(N2C(=O)C3(CCC3)N(c3ccc(OC4CCNCC4)nc3)C2=S)cc1Cl` [Compound 23, 2-Chloro-4-(8-oxo-5-(6-(piperidin-4-yloxy)pyridin-3-yl)-6-thioxo-5,7-diazaspiro[3.4]octan-7-yl)benzonitrile hydrochloride], for which, in test [1], the pIC50 (commonly the negative decadic logarithm of the IC50, by convention in mol/L) is 7.17 and the Emax was found to be 105%. Further, in test [2], the pEC50 – broadly, −log10 of the EC50, conventionally taken in molar units – is less than 4.82 and the Emax amounted to 0.9%.
In the case of `N#Cc1ccc(N2C(=O)C3(CCC3)N(c3ccc(OC4CCNCC4)cc3)C2=S)cc1Cl` [Compound 21, 2-Chloro-4-(8-oxo-5-(4-(piperidin-4-yloxy)phenyl)-6-thioxo-5,7-diazaspiro[3.4]octan-7-yl)benzonitrile], in test [1], the IC50 was 331 nM and the Emax stood at 106%. Besides, in test [2], the pEC50 was less than 4.82 and the Emax turned out to be 0.1%.
In the case of `Cc1cc(N2C(=O)C3(CCC3)N(c3ccc(OC4CCN(C)CC4)cc3)C2=S)ccc1C#N` [Compound 17, 2-Methyl-4-(5-(4-((1-methylpiperidin-4-yl)oxy)phenyl)-8-oxo-6-thioxo-5,7-diazaspiro[3.4]octan-7-yl)benzonitrile], in test [1], the IC50 was 170 nM and the Emax is 105%. The EC50 in test [2] (agonist mode (buffer, no R-1881), -Log10(EC50 in Molar), read-out: LNCaP-AR-wt AG pEC50 (converted)) is more than 15100 nM. For the same molecule, the Emax in test [2] is -0.1%.
On to `CC1(C)C(=O)N(c2ccc(C#N)c(C(F)(F)F)c2)C(=S)N1c1ccc(OC2CCNCC2)nc1` [Compound 3, 4-(4,4-Dimethyl-5-oxo-3-(6-(piperidin-4-yloxy)pyridin-3-yl)-2-thioxoimidazolidin-1-yl)-2-(trifluoromethyl)benzonitrile hydrochloride], for which, in test [1], the pIC50 was 7.33 and the Emax was 103%. In test [2], the pEC50 is less than 4.82 and the Emax is 0.5%.
As to `CN1CCC(Oc2ccc(N3C(=S)N(c4ccc(C#N)c(C(F)(F)F)c4)C(=O)C34CCC4)cc2)CC1` [Compound 12, 4-(5-(4-((1-Methylpiperidin-4-yl)oxy)phenyl)-8-oxo-6-thioxo-5,7-diazaspiro[3.4]octan-7-yl)-2-(trifluoromethyl)benzonitrile], in test [1], the pIC50 was 6.49 and the Emax was found to be 104%. For the same molecule, in test [2], the pEC50 was less than 4.82 and the Emax was 0.4%.
In the case of `CC1(C)C(=O)N(c2ccc(C#N)c(C(F)(F)F)c2)C(=S)N1c1cnc(OC2CCNCC2)nc1` [Compound 5, 4-(4,4-Dimethyl-5-oxo-3-(2-(piperidin-4-yloxy)pyrimidin-5-yl)-2-thioxoimidazolidin-1-yl)-2-(trifluoromethyl)benzonitrile], in test [1], the pIC50 was 6.77 and the Emax is 101%. For the same molecule, in test [2], the pEC50 was less than 4.82 and the Emax was found to be 0.1%.
For the molecule `COc1cc(N2C(=O)C3(CCC3)N(c3ccc(OC4CCN(C)CC4)nc3)C2=S)ccc1C#N` [Compound 20, 2-Methoxy-4-(5-(6-((1-methylpiperidin-4-yl)oxy)pyridin-3-yl)-8-oxo-6-thioxo-5,7-diazaspiro[3.4]octan-7-yl)benzonitrile], in test [1], the IC50 was 214 nM and the Emax came to 100%. Besides, in test [2], the pEC50 was less than 4.82 and the Emax was -0.1%.
In the case of `CC1(C)C(=O)N(c2ccc(C#N)c(Cl)c2)C(=S)N1c1ccc(OC2CCNCC2)cc1` [Compound 7, 2-Chloro-4-(4,4-dimethyl-5-oxo-3-(4-(piperidin-4-yloxy)phenyl)-2-thioxoimidazolidin-1-yl)benzonitrile hydrochloride], in test [1], the negative logarithm of the IC50 (pIC50) is 7.21 and the Emax is 101%. In test [2], the pEC50 is less than 4.82 and the Emax was 0%.
For the molecule `N#Cc1ccc(N2C(=O)C3(CCC3)N(c3ccc(OC4CCNCC4)nc3)C2=S)cc1C(F)(F)F` [Compound 13, 4-(8-Oxo-5-(6-(piperidin-4-yloxy)pyridin-3-yl)-6-thioxo-5,7-diazaspiro[3.4]octan-7-yl)-2-(trifluoromethyl)benzonitrile hydrochloride], in test [1], the pIC50 was 7.20 and the Emax amounted to 104%. Further, in test [2], the pEC50 is less than 4.82 and the Emax amounted to 0.5%.
With `CN1CCC(Oc2ccc(N3C(=S)N(c4ccc(C#N)c(Cl)c4)C(=O)C3(C)C)cc2)CC1` [Compound 8, 2-Chloro-4-(4,4-dimethyl-3-(4-((1-methylpiperidin-4-yl)oxy)phenyl)-5-oxo-2-thioxoimidazolidin-1-yl)benzonitrile hydrochloride], in test [1], the pIC50 was 7.09 and the Emax was 103%. Also, in test [2], the pEC50 was less than 4.82 and the Emax is 0.1%.
For `CN1CCC(Oc2ccc(N3C(=S)N(c4ccc(C#N)c(C(F)(F)F)c4)C(=O)C3(C)C)cn2)CC1` [Compound 4, 4-(4,4-Dimethyl-3-(6-((1-methylpiperidin-4-yl)oxy)pyridin-3-yl)-5-oxo-2-thioxoimidazolidin-1-yl)-2-(trifluoromethyl)benzonitrile hydrochloride], in that order: 7.05, 102%, less than 4.82 and 0.1%.
For the molecule `CN1CCC(Oc2ncc(N3C(=S)N(c4ccc(C#N)c(C(F)(F)F)c4)C(=O)C3(C)C)cn2)CC1` [Compound 6, 4-(4,4-Dimethyl-3-(2-((1-methylpiperidin-4-yl)oxy)pyrimidin-5-yl)-5-oxo-2-thioxoimidazolidin-1-yl)-2-(trifluoromethyl)benzonitrile], in test [1], the pIC50 is 7.04 and the Emax turned out to be 102%. Besides, in test [2], the pEC50 is less than 4.82 and the Emax turned out to be 0.8%.
